The supplement of paper PMC7108870

Tests used:
HEK293sieSTAT3(Y640F) [1] = test: drug sensitivity score (DSS), viability CellTiter-Glo (DSS (dimensionless)); higher = more growth inhibition; extreme values may be limits of the assay; settings: 72 h; STAT3 variant: Y640F (constitutively active)
How it was run: (§1)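 HEK293 cells bearing a STAT3-dependent luciferase reporter and overexpressing wild-type or mutant STAT3 were incubated with compounds at 5 concentrations in 10-fold steps for 72 hours at 37°C and 5% CO2. CellTox Green fluorescence and then CellTiter-Glo luminescence were measured, and values were normalised to negative and positive control wells. In Breeze, a drug sensitivity score was computed from the dose-response curve area.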

HEK293sieSTAT3(wt) [2] = test: as above; settings: 72 h; STAT3 variant: wild type
How it was run: as §1

HEK293sieSTAT3(Y640F) [3] = test: drug sensitivity score (DSS), cytotoxicity CellTox Green (DSS (dimensionless)); higher = more cytotoxic; extreme values may be limits of the assay; settings: 72 h; STAT3 variant: Y640F (constitutively active)
How it was run: as §1

HEK293sieSTAT3(wt) [4] = test: as above; settings: 72 h; STAT3 variant: wild type
How it was run: as §1

Row | Compound | drug sensitivity score (HEK293sieSTAT3(Y640F) [1]) | drug sensitivity score (HEK293sieSTAT3(wt) [2]) | drug sensitivity score (HEK293sieSTAT3(Y640F) [3]) | drug sensitivity score (HEK293sieSTAT3(wt) [4])
1 | O=C(Nc1cccc(C(F)(F)F)c1)Nc1cc(S(=O)(=O)NC2CC2)ccc1-c1ccsc1 [AGI-6780] (top concentration tested 10000 nM) | 1.05 | 2.88 | 0 | 1.62
2 | COc1ccc2c(OCc3nnc4ccc(-c5ccccc5)nn34)ccnc2c1 [AMG-208] (top concentration tested 2500 nM) | 1.58 | 0.59 | 0.89 | 0.89
3 | CC(C)[C@@H](CS(=O)(=O)C(C)C)N1C(=O)[C@@](C)(CC(=O)O)C[C@H](c2cccc(Cl)c2)[C@H]1c1ccc(Cl)cc1 [AMG-232] (top concentration tested 1000 nM) | 0 | 0 | 0 | 0
4 | Cc1csc(-c2nnc(Nc3ccc(Oc4ncccc4-c4ccnc(N)n4)cc3)c3ccccc23)c1 [AMG-900] (top concentration tested 1000 nM) | 4.35 | 3.01 | 0 | 0
5 | CC1CCC(n2c3cnccc3c3cnc(Nc4ccc5c(n4)CCN(C(=O)CO)C5)nc32)CC1 (stereo not given) [AMG-925] (top concentration tested 1000 nM) | 5.44 | 5.61 | 0 | 2.08
6 | COCC1(CO)C(=O)C2CCN1CC2 (stereo not given) [APR-246] (top concentration tested 10000 nM) | 0 | 1.99 | 0 | 0
7 | CC(C)[C@H](C(=O)Nc1ccc(C(=O)NO)cc1)c1ccccc1 [AR-42] (top concentration tested 10000 nM) | 14.4 | 16.5 | 5.41 | 8.7
8 | CNC(=O)c1ccc(N2C(=S)N(c3cnc(C#N)c(C(F)(F)F)c3)C(=O)C23CCC3)cc1F [ARN 509] (top concentration tested 10000 nM) | 2.68 | 2.33 | 0 | 0
9 | COc1cc(N2CCC(N3CCN(C)CC3)CC2)ccc1Nc1ncnc(Nc2ccccc2S(=O)(=O)C(C)C)n1 [ASP3026] (top concentration tested 10000 nM) | 7.3 | 8.01 | 0.7 | 4.8
10 | O=C(NC1CCNCC1)c1n[nH]cc1NC(=O)c1c(Cl)cccc1Cl [AT7519] (top concentration tested 10000 nM) | 16.7 | 18.6 | 4.11 | 12.2
11 | O=C(Nc1c[nH]nc1-c1nc2ccc(CN3CCOCC3)cc2[nH]1)NC1CC1 [AT9283] (top concentration tested 1000 nM) | 0.91 | 1.49 | 0 | 0.75
12 | CN[C@@H](C)C(=O)N[C@H]1CN(C(=O)CC(C)C)CC[C@H]2CC[C@@H](C(=O)NC(c3ccccc3)c3ccccc3)N2C1=O [AT-406] (top concentration tested 10000 nM) | 8.75 | 17.9 | 12.6 | 33.2
13 | CC[C@H](CC#N)OC(=O)N[C@@H](C)c1cccc(NC(=O)Nc2ccc(-c3cnco3)c(OC)c2)c1 [AVN944] (top concentration tested 10000 nM) | 17.1 | 20.7 | 1.07 | 6.87
14 | COc1cc(N2CCN(C)CC2)ccc1Nc1nccc(-c2cn(C)c3cnccc23)n1 [AZ191] (top concentration tested 10000 nM) | 6.19 | 4.19 | 1.68 | 2.77
15 | COc1cc(OC2CCN(C)CC2)ccc1Nc1ncc2c(n1)n(C1CCCC1)c(=O)n2C [AZ 3146] (top concentration tested 10000 nM) | 8.94 | 11.3 | 4.52 | 11.4
16 | CC(C)Oc1cc(Nc2nc(N[C@@H](C)c3ccc(F)cn3)ncc2Cl)n[nH]1 [AZ-23] (top concentration tested 1000 nM) | 3.11 | 6.5 | 0 | 1.27
17 | N[C@@H]1CCCN(c2c(/C=C3\SC(=O)NC3=O)cccc2-c2ccccc2)C1 [AZD1208] (top concentration tested 10000 nM) | 0 | 0 | 0 | 0
18 | Cc1cc(Nc2nc(N[C@@H](C)c3ncc(F)cn3)ncc2Cl)[nH]n1 [AZD1480] (top concentration tested 1000 nM) | 0 | 0.06 | 0.04 | 0.43
19 | CNC(=O)c1cccc(-c2ccc3c(N4CCOC[C@@H]4C)nc(N4CCOC[C@@H]4C)nc3n2)c1 [AZD2014] (top concentration tested 10000 nM) | 18 | 20.1 | 0 | 4.19
20 | COc1cc(CCc2cc(NC(=O)c3ccc(N4CC(C)NC(C)C4)cc3)n[nH]2)cc(OC)c1 (stereo not given) [AZD4547] (top concentration tested 1000 nM) | 1.23 | 0.43 | 0 | 0.01
21 | CN(C)C(=O)c1ccc(S(=O)(=O)c2ccc(NC(=O)[C@@](C)(O)C(F)(F)F)c(Cl)c2)cc1 [AZD7545] (top concentration tested 10000 nM) | 0.82 | 0.28 | 0 | 0
22 | NC(=O)Nc1cc(-c2cccc(F)c2)sc1C(=O)N[C@H]1CCCNC1 [AZD7762] (top concentration tested 1000 nM) | 14.9 | 16.8 | 4.24 | 7.16
23 | COc1ccc(-c2ccc3c(N4CCOC[C@@H]4C)nc(N4CCOC[C@@H]4C)nc3n2)cc1CO [AZD8055] (top concentration tested 10000 nM) | 25.7 | 26.8 | 0 | 3.7

Row | Compound | drug sensitivity score (HEK293sieSTAT3(Y640F) [1]) | drug sensitivity score (HEK293sieSTAT3(wt) [2]) | drug sensitivity score (HEK293sieSTAT3(Y640F) [3]) | drug sensitivity score (HEK293sieSTAT3(wt) [4])
24 | N#Cc1ccc2[nH]c(O)c(-c3ccc(CN4CCOCC4)cn3)c2c1 [AZD-1080] (top concentration tested 10000 nM) | 1.14 | 0.74 | 0 | 2.84
25 | Cc1ncc(-c2ccnc(Nc3ccc(S(C)(=O)=O)cc3)n2)n1C(C)C [AZD-5438] (top concentration tested 10000 nM) | 9.27 | 15.4 | 5.66 | 13.8
26 | Cc1cc([C@@H](C)Nc2ccccc2C(=O)O)c2nc(N3CCOCC3)cc(=O)n2c1 [AZD-6482] (top concentration tested 2500 nM) | 1.08 | 1.97 | 0 | 0.89
27 | C[C@@H](Nc1cc(F)cc(F)c1)c1cc(C(=O)N(C)C)cc2c(=O)cc(N3CCOCC3)oc12 [AZD-8186] (top concentration tested 1000 nM) | 0 | 0.9 | 0 | 0
28 | Cc1cc(C(=O)NOCCO)c(Nc2ccc(I)cc2F)n(C)c1=O [AZD-8330] (top concentration tested 10000 nM) | 7.16 | 0.01 | 0 | 0
29 | CCN1CCN(Cc2ccc(Nc3ncc(F)c(-c4cc(F)c5nc(C)n(C(C)C)c5c4)n3)nc2)CC1 [Abemaciclib] (top concentration tested 2500 nM) | 0.98 | 0.4 | 0 | 0
30 | CN(C)Cc1c(C(=O)NCCOc2ccc(C(=O)NO)cc2)oc2ccccc12 [Abexinostat] (top concentration tested 10000 nM) | 22.9 | 22.3 | 10.7 | 17.5
31 | C[C@]12CC[C@H](O)CC1=CC[C@@H]1[C@@H]2CC[C@]2(C)C(c3cccnc3)=CC[C@@H]12 [Abiraterone] (top concentration tested 5000 nM) | 2.65 | 1.01 | 0 | 0
32 | CN(C)C/C=C/C(=O)Nc1cc2c(Nc3ccc(F)c(Cl)c3)ncnc2cc1O[C@H]1CCOC1 [Afatinib] (top concentration tested 1000 nM) | 0.98 | 1.06 | 0 | 0
33 | Cn1ncc(Cl)c1-c1cc(C(=O)N[C@H](CN)Cc2cccc(F)c2)sc1Cl [Afuresertib] (top concentration tested 1000 nM) | 6.74 | 9.38 | 0 | 0
34 | COc1cccc2c1C(=O)c1c(O)c3c(c(O)c1C2=O)C[C@@](O)(/C(CO)=N/NC(=O)CCCCCN1C(=O)C=CC1=O)C[C@@H]3O[C@H]1C[C@H](N)[C@H](O)[C@H](C)O1 [Aldoxorubicin] (top concentration tested 1000 nM) | 19.7 | 21.1 | 0 | 0
35 | CCc1cc2c(cc1N1CCC(N3CCOCC3)CC1)C(C)(C)c1[nH]c3cc(C#N)ccc3c1C2=O [Alectinib] (top concentration tested 1000 nM) | 3.02 | 4.73 | 0 | 2.75
36 | COc1cc(Nc2ncc3c(n2)-c2ccc(Cl)cc2C(c2c(F)cccc2OC)=NC3)ccc1C(=O)O [Alisertib] (top concentration tested 10000 nM) | 9.16 | 12.1 | 0 | 8.65
37 | Oc1ncnc2[nH]ncc12 [Allopurinol] (top concentration tested 10000 nM) | 3.38 | 0.7 | 0 | 0
38 | Cc1nc(NC(=O)N2CCC[C@H]2C(N)=O)sc1-c1ccnc(C(C)(C)C(F)(F)F)c1 [Alpelisib] (top concentration tested 2500 nM) | 0.49 | 3.18 | 0 | 0
39 | CN(C)c1nc(N(C)C)nc(N(C)C)n1 [Altretamine] (top concentration tested 10000 nM) | 0 | 0 | 0 | 0
40 | CO[C@H]1/C=C\C=C(/C)C(=O)NC2=CC(=O)C(NCCN(C)C)=C(C[C@@H](C)C[C@H](OC)[C@H](O)[C@@H](C)/C=C(\C)[C@@H]1OC(N)=O)C2=O [Alvespimycin] (top concentration tested 1000 nM) | 14.9 | 16.6 | 7.84 | 16.2
41 | CN1CC[C@H](c2c(O)cc(O)c3c(=O)cc(-c4ccccc4Cl)oc23)[C@H](O)C1 [Alvocidib] (top concentration tested 10000 nM) | 20.1 | 24.4 | 9.09 | 17.1
42 | CCC1(c2ccc(N)cc2)CCC(=O)NC1=O (stereo not given) [Aminoglutethimide] (top concentration tested 10000 nM) | 0.16 | 0.06 | 0 | 0
43 | CN(C)CCN1C(=O)c2cccc3cc(N)cc(c23)C1=O [Amonafide] (top concentration tested 10000 nM) | 11.3 | 15 | 1.87 | 7.09
44 | COc1cc(NS(C)(=O)=O)ccc1Nc1c2ccccc2nc2ccccc12 [Amsacrine] (top concentration tested 10000 nM) | 25.2 | 26.9 | 6.68 | 11.1
45 | S=C(NCc1ccc2c(c1)OCO2)N1CCN(c2ncnc3c2oc2ccccc23)CC1 [Amuvatinib] (top concentration tested 10000 nM) | 5.74 | 5.71 | 3.08 | 8.39
